Measurements from PubChem BioAssay AID651630 (Sanford-Burnham Center for Chemical Genomics, 2012).
Active and inactive are the calls of the source.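 The calls were made as follows: active = lipid-stain IC50 at or below a set limit, with nuclear-stain toxicity IC50 at least five times higher; inactive = the rest.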

What was measured:
DAPI = assay: triacylglycerol accumulation inhibitor potency, dose response, cell-based, panel, Nile Red and DAPI fluorescence, H9c2 (AID 651630); details: H9c2 cells, DAPI nuclear fluorescence (cytotoxicity counter-readout), oleic acid;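 also: cells exposed to compound overnight before fixation and staining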
TAG = assay: as above; details: H9c2 cells, Nile Red TAG fluorescence, oleic acid

Row | Structure (SMILES) | IC50 cytotoxicity (DAPI nuclear signal decrease) (DAPI; run 1) | IC50 cytotoxicity (DAPI nuclear signal decrease) (DAPI; run 2) | IC50 (TAG; mean of runs) | IC50 (TAG; run 1) | IC50 (TAG; run 2) | IC50 cytotoxicity (DAPI nuclear signal decrease) (DAPI; mean of runs)
1 | Cc1ccc(-c2nn(-c3ccccc3)cc2NC(=O)CCl)cc1 | 20.6 µM | > 25 µM | > 25 µM (inactive) | > 25 µM | > 25 µM | –
2 | Cc1cccc(Nc2nc(NCc3ccco3)nc(N3CCOCC3)n2)c1 | > 25 µM | > 25 µM | > 25 µM (inactive) | > 25 µM | > 25 µM | > 25 µM (inactive)
3 | O=c1cc(N2CCN(c3cccc(Cl)c3)CC2)[nH]c(=O)n1C1CCCCC1 | 18.2 µM | > 25 µM | 3.47 µM | 5.5 µM | 1.44 µM | –
4 | CCc1ccc(-c2nc(C(N)=O)c3[nH]c(=O)n(-c4ccccc4OC)c3n2)cc1 | > 25 µM | > 25 µM | 2.73 µM | 2.74 µM | 2.71 µM | –
5 | N#C/C(=C\c1cc([N+](=O)[O-])c(N2CCCCC2)cc1N1CCCCC1)c1nn(-c2ccccc2)c(N)c1C#N | > 25 µM | > 25 µM | > 25 µM (inactive) | > 25 µM | > 25 µM | > 25 µM (inactive)
6 | C=CCC[C@@H](Cc1ccc(F)cc1)C(=O)OC[C@@H](Cc1c[nH]c2ccccc12)NC(=O)[C@@H](CC=C)CC(=O)N(CCO)Cc1ccccc1 | > 25 µM | > 25 µM | 8.26 µM | 7.1 µM | 9.42 µM | > 25 µM (inactive)
7 | CNC(=S)NN=C(C)c1ccc(OC)cc1O | > 25 µM | > 25 µM | > 25 µM (inactive) | > 25 µM | > 25 µM | > 25 µM (inactive)
8 | Cc1ccc(NC(=O)CSc2nnc(C)c(=O)n2N)cc1Cl | > 25 µM | > 25 µM | – | 24 µM | > 25 µM | > 25 µM (inactive)
9 | CC1CCN(c2cc(N3CCC(C)CC3)c([N+](=O)[O-])cc2/C=C(\C#N)c2nn(-c3ccccc3)c(N)c2C#N)CC1 | > 25 µM | > 25 µM | > 25 µM (inactive) | > 25 µM | > 25 µM | > 25 µM (inactive)
10 | Cc1cccc(-c2ccc3[nH]c4c(c3c2)CCN2C[C@@H]([C@H](C)O)[C@@H](N(C)C(=O)Nc3ccc(F)cc3)C[C@@H]42)c1 | > 25 µM | > 25 µM | – | 18 µM | > 25 µM | > 25 µM (inactive)
11 | COc1ccc(OC)c(Nc2nc(-c3sc(NC(=O)CC(C)C)nc3C)cs2)c1 | > 25 µM | > 25 µM | 14.1 µM | 12.9 µM | 15.3 µM | > 25 µM (inactive)
12 | c1ccc(-c2nc(SCc3nc4ccccc4[nH]3)c3oc4ccccc4c3n2)cc1 | > 25 µM | > 25 µM | 10.5 µM | 10 µM | 11 µM | > 25 µM (inactive)
13 | Cc1cccc(N2CCN(C(=O)c3c(-c4ccccc4Cl)noc3C)CC2)c1C | > 25 µM | > 25 µM | 16.3 µM (inactive) | 16.5 µM | 16 µM | > 25 µM (inactive)
14 | Brc1ccc(-c2csc(NNC3=NCCCCC3)n2)cc1 | 21.6 µM | > 25 µM | 1.85 µM | 1.55 µM | 2.15 µM | –
15 | Cc1cc(NC(=O)CSc2nc(-c3ccco3)cc(C(F)(F)F)n2)no1 | > 25 µM | > 25 µM | > 25 µM (inactive) | > 25 µM | > 25 µM | > 25 µM (inactive)
16 | Cc1noc(C)c1-c1ccc2ncnc(NCC3CCCCN3C)c2c1 (stereo unspecified) | > 25 µM | > 25 µM | > 25 µM (inactive) | > 25 µM | > 25 µM | > 25 µM (inactive)
17 | CCCCOc1ccccc1NC(=O)Cn1c(-c2nonc2N)nc2ccccc21 | > 25 µM | > 25 µM | > 25 µM (inactive) | > 25 µM | > 25 µM | > 25 µM (inactive)
